5 molecules from US20230310446A1, “RHO KINASE INHIBITION FOR TREATMENT OF PROLIFERATIVE VITREORETINOPATHY AND CONDITIONS ASSOCIATED WITH EPITHELIAL TO MESENCHYMAL TRANSITION” (The Schepens Eye Research Institute, Inc., priority 2020, published 2023) can be followed below.

Entries after “also recorded” stand apart in the source; their conditions may differ.

In data set [1] the test system is C-PVR cells. In words: TGF-β2 induced mesenchymal phenotypic change, phase images. The conditions noted are these: 1 uM, TGF-β2 10 ng/ml, day 3. The data set is classed as cell-based, human. As for the experimental part: PVR cells were seeded in well plates for a period of 72 hours. Cells were pre-treated with rho-kinase inhibitors: ripasudil, netarsudil, fasudil and […] (1 uM) for 24 hours, then treated with TGF-β2 […], rho-kinase inhibitors (1 uM), and control with no drug, using triplicates for each condition. Changes in phenotype were examined via phase images at day 3.

The test system of data set [2] is PVR explants. Kind of data set: Ex vivo model of PVR: outgrowth from PVR membrane explants embedded in Matrigel. Conditions: ex vivo cultured explants of PVR tissue from human subjects. The class given is cell-based.
Data set [3] deals with PVR explants. The data set is described as above. The class given is cell-based, human. Conditions: for explant outgrowths, inhibition of proliferation and migration: 1 μM, all time points. The method, then: PVR membranes were divided into pieces and embedded in growth factor reduced Matrigel (354,230; BD Biosciences, San Jose, CA) in a 24-well plate and placed at 37° C. for 30 min for the Matrigel to solidify. The specimens were treated with either vehicle or Rho kinase inhibitors, Netarsudil (60 nM), Ripasudil (300 nM), Fasudil (1 uM), and Y27632 (1 uM) in 500 μl in PVR growth media comprising: • 1) Endothelial base medium (EBM2; Lonza-CC-3156)+ • 2) EGM 2 SingleQuot Kit suppl. & Growth factors (Lonza; CC-4176)+ • 3) 10% fetal bovine serum (Atlanta Biologicals)+ • 4) 1% Penicillin/Streptomycin+1% L-Glutamine • *** The total FBS in the media is 12% (2% from SingleQuot+10% additional) Phase contrast images were taken using an EVOS FL imaging system (Life Technologies) and the distance of growth from the embedded tissue was quantified using Image J (National Institutes of Health). PVR membranes were obtained from human donors with PVR grade C undergoing surgery. Membrane fragments placed on a matrigel mount with PVR cell growth media and treated with Rho-Kinase inhibitors ripasudil (1 μM), netarsudil (1 μM), fasudil (1 μM), Y-27632 (1 μM) and control with no drug.

For data set [4], the system named is C-PVR cells. In words: CyQUANT Direct Cell Proliferation Assay of primary PVR cultures. The data set is classed as cell-based, human. Conditions: 48 hours. As for the experimental part: PVR cells were cultured and seeded into 96 well assay plates at 10,000 cells/well in complete growth media. […] Cell proliferation was assessed at 24, and 48 hour time points by CyQUANT® Direct Cell Proliferation Assay (Thermofisher Scientific) and compared to vehicle controls at 24, and 48 hours post treatment. The data was expressed as percent cell inhibition. […] Cell proliferation and cell death LDH levels were measured and quantified at 48 hours.

For data set [5], the system named is C-PVR cells. In words: Cell migration of PVR cells quantified with phase images. The class given is cell-based, human. Conditions: 1 μM. As for the experimental part: PVR cells cultured using Rho-Kinase inhibitors ripasudil (1 μM), netarsudil (1 μM), fasudil (1 μM), Y-27632 (1 μM) and control with no drug. Cell migration was measured and quantified with phase images at 0, 3, 6, and 12 hours.

In data set [6] the test system is C-PVR cells. Kind of data set: LDH release cytotoxicity assay (CytoTox 96) of primary PVR cultures. The data set is classed as cell-based, human. Conditions: 48 hours. As for the experimental part: Conditioned media was also collected at 24, and 48 hour time points for each condition, and percentage cell death was quantified by measuring LDH release using the CytoTox 96 Non-Radioactive Cytotoxicity Assay (Promega, Madison, WI, USA). As a positive control, the same number of cells maintained in parallel was lysed by two freeze—thaw cycles; the conditioned media were collected to measure the maximum LDH release. Percentage LDH release was calculated as 100%×(experimental LDH−spontaneous LDH)/(maximal LDH−spontaneous LDH).
PVR cells were cultured using Rho-Kinase inhibitors ripasudil, netarsudil, fasudil, Y-27632 at different concentrations (0.1 μM, 10 μM) and control with no drug. Cell proliferation and cell death LDH levels were measured and quantified at 48 hours.
In general terms: LDH in the medium is a marker of cell lysis.

Data set [7] has as its system RhoA. Kind of data set: RhoA pull down activation assay after TGF-β2 treatment. The class given is cell-based, human. The conditions noted are these: C-PVR cells. The method, then: C-PVR cells were cultured and seeded in T-25 flasks at 1 million cells per flask. […] Cells were washed with ice-cold PBS and cell lysates were harvested with a cell scraper. Protein concentration of each time point was measured to ensure equal protein concentration. Using freshly prepared cell lysates, equivalent protein amounts (300-500 ug total protein) were added to 30 ul of rhotekin-RBD beads (Cytoskeleton, Denver, CO) for the […] pulldown assay. Pulldown assay supernatants were quantified using western blot analysis. An anti-RhoA primary antibody (Cytoskeleton, Denver, CO) was added and left overnight at 4° C., After primary antibody intubation, HRP labeled secondary antibody was added, following by addition on HRP detection reagent and intubated at room temperature for 5 minutes,
PVR cells cultured in T-25 flasks and treated with TGF-β2 […] at 80% confluence. […]

Where [8] appears, read: 7 days post embedding in Matrigel.
[9] abbreviates: 14 days post embedding in Matrigel.

On to `C[C@@H](N)[C@H]1CC[C@H](C(=O)Nc2ccncc2)CC1.Cl.Cl` [Y-27632, (+)-(R)-trans-4-(1-aminoethyl)-N-(4-pyridyl)cyclohexanecarboxamide dihydrochloride], for which the “mesenchymal phenotypic change in TGF-β2 treated C-PVR cells” value (from here on “mesenchymal phenotypic change”) in data set [1] is “slightly decreased”. Also, the “numbers of live cells in the explants” value in data set [2] is “significantly reduced”. In addition, the “explant outgrowths, inhibition of proliferation and migration” value in data set [3] (listed as Y-2762, dihydrochloride) is “no outgrowths and almost complete inhibition of proliferation and migration”.
With `O=S(=O)(c1cccc2cnccc12)N1CCCNCC1` [fasudil, 1-(5-isoquinolinesulfonyl)-homopiperazine], in data set [1], the “mesenchymal phenotypic change” value is “slightly decreased”. The “reduction of proliferation in C-PVR cells” value (from here on “reduction of proliferation”) in data set [4] (0.1 μM (lowest concentration)) is listed as 24%; in data set [4] (1 μM (lower concentration)), 39%; in data set [4] (10 μM (highest concentration)) it was 20%. Besides, the “numbers of live cells in the explants” value in data set [2] is on record as “significantly reduced”. The “explant outgrowths, inhibition of proliferation and migration” value in data set [3] was “no outgrowths and almost complete inhibition of proliferation and migration”. Besides, the “reduction of migration in C-PVR cells” value in data set [5] stood at 40%. The “cell death detected by LDH analysis” value in data set [6] (all concentrations (10-0.1 μM)) was “low levels of cell death”.
For `Cc1ccc(C(=O)OCc2ccc([C@@H](CN)C(=O)Nc3ccc4cnccc4c3)cc2)c(C)c1` [netarsudil], the “reduction of proliferation” value is recorded as 39% in data set [4] (0.1 μM (lowest concentration)), 37% in data set [4] (1 μM (lower concentration)) and 95% in data set [4] (10 μM (highest concentration)). The explant outgrowth in data set [3] (setting [8]) is 4.2 mm; in data set [3] (setting [9]) it was 37 mm. For the same molecule, the “reduction of migration in C-PVR cells” value in data set [5] is 100%. Besides, the results for the “cell death detected by LDH analysis” value in data set [6] (all concentrations (10-0.1 μM)) and in data set [6] (low concentrations (0.1 μM)) were “dose dependent cell death” and “Low levels of cell death”, respectively.
Consider `C[C@H]1CNCCCN1S(=O)(=O)c1cccc2cncc(F)c12` [ripasudil, 4-fluoro-5-[[(2S)-2-methyl-1,4-diazepan-1-yl]sulfonyl]isoquinoline], for which the “mesenchymal phenotypic change” value in data set [1] is given as “slightly decreased”. The “reduction of proliferation” value stood at 21% in data set [4] (0.1 μM (lowest concentration)), 25% in data set [4] (1 μM (lower concentration)) and 44% in data set [4] (10 μM (highest concentration)). The explant outgrowth is recorded as 0.8 mm in data set [3] (setting [8]) and 15 mm in data set [3] (setting [9]). In data set [5], the “reduction of migration in C-PVR cells” value is 65%. In addition, the “cell death detected by LDH analysis” value in data set [6] (all concentrations (10-0.1 μM)) is “dose dependent cell death; also recorded: Low levels of cell death”.

B1: TGF-β2: Recombinant Human TGF-β2 growth factor (PeproTech) used as stimulus of EMT and RhoA activation (protein, UniProt P61812 303-414, looked up)
Transforming growth factor …: ALDAAYCFRNVQDNCCLRPLYIDFKRDLGWKWIHEPKGYNANFCAGACPYLWSSDTQHSRVLSLYNTINPEASASPCCVSQDLEPLTILYYIGKTPKIEQLSNMIVKSCKCS
In the case of B1, the “RhoA activation, increase over control” value is reported as 1.5 in data set [7] (15 minutes after stimulation) and 2 fold in data set [7] (30 minutes after stimulation). For the same molecule, the “RhoA activation versus control” value in data set [7] (60 minutes after stimulation) is on record as “slight decrease over control”.
